Experimental data as given in paper PMC6272251, “Two New Phenolic Glucosides from Lagerstroemia speciosa” (Molecules, 2015).

Key:
[1] = test system: nitric oxide production in lipopolysaccharide-treated RAW264.7 cells; assay: Inhibition of LPS-induced NO production in RAW264.7 cells (Griess reagent); format: cell-based; conditions: Mus musculus, RAW 264.7 cells, compounds 30 min then LPS 1.0 μg/mL for 24 h
Description: RAW264.7 cells were plated at 1 × 10^6 cells/mL and incubated for 18 h. After incubation, the cells were treated with Compounds 1–12 for 30 min and then continuously incubated with LPS (1.0 μg/mL) for 24 h. The inhibitory effects of the isolated compounds on NO production were evaluated by using the Griess reagent and an EIA kit to determine the NO levels, as described previously.

RAW264.7 cells = assay: Cell viability test (MTT assay); format: cell-based; conditions: Mus musculus, RAW 264.7 cells, compounds 25 to 150 μM, 24 h
Description: RAW264.7 cells were plated at 1 × 10^6 cells/mL and incubated for 18 h followed by the addition of Compounds 1–12 to the cells (25 to 150 μM), and the cells were incubated for 24 h. The cytotoxicity was evaluated by an MTT (3-(4,5-dimethylthiazol-2-yl)-2,5-diphenyltetrazolium bromide) assay. The […] of MTT solution (10 mg/mL in phosphate buffered saline, pH 7.4) were added to the cells 3 h prior to the end of the culture period. The incubation was terminated by the addition of 15% sodium dodecyl sulfate to each well to solubilize the formazan. The absorbance was measured by a microplate reader at 570 nm (OD570-630).

| SMILES | IC50 [1] [µM] | IC50 (RAW264.7 cells) [µM] |
| --- | --- | --- |
| O=C(C=Cc1ccc(O)c(O)c1)OCC1OC(OCc2ccccc2)C(O)C(O)C1O [Compound 1, 1-O-benzyl-6-O-E-caffeoyl-β-D-glucopyranoside] | 81.8 ± 1.3 | > 100 |
| O=c1c(O[C@@H]2O[C@H](CO)[C@H](O)[C@H](O)[C@H]2O)c(-c2ccc(O)c(O)c2)oc2cc(O)cc(O)c12 [Compound 3, quercetin-3-O-β-D-galactopyranoside] | 81.9 ± 1.9 | > 100 |
| O=C(C=Cc1ccc(O)c(O)c1)OCC1OC(Oc2c(-c3ccc(O)c(O)c3)oc3cc(O)cc(O)c3c2=O)C(O)C(O)C1O [Compound 4, quercetin-3-O-(6''-O-E-caffeoyl)-β-D-galactopyranoside] | 83.3 ± 0.9 | > 100 |
| O=C(/C=C/c1ccc(O)c(O)c1)O[C@@H]1C[C@](O)(C(=O)O)C[C@@H](O)[C@H]1O [Compound 11, chlorogenic acid] | 81.2 ± 0.7 | > 100 |

These reach a lower IC50 [1]. Values come first.

| IC50 [1] [µM] | SMILES | IC50 (RAW264.7 cells) [µM] |
| --- | --- | --- |
| 71.1 ± 1.9 | COc1cc(C(O)C(O)CO)ccc1OC1OC(COC(=O)C=Cc2ccc(O)c(O)c2)C(O)C(O)C1O [Compound 2, 1-O-(7S,8R)-guaiacylglycerol-(6-O-E-caffeoyl)-β-D-glucopyranoside] | 87.7 ± 3.5 |
| 69.5 ± 1.4 | O=C(C=Cc1ccc(O)c(O)c1)OCC1OC(OC(=O)C=Cc2ccc(O)c(O)c2)C(O)C(O)C1O [Compound 5, 1,6-di-O-E-caffeoyl-β-D-glucopyranoside] | > 100 |
| 76.2 ± 0.6 | COc1cc(CCCO)cc(OC)c1O[C@@H]1O[C@H](CO)[C@@H](O)[C@H](O)[C@H]1O [Compound 7, dihydrosyringin] | > 100 |
| 70.7 ± 1.2 | O=C(C=Cc1ccc(O)c(O)c1)OC1OC(CO)C(O)C(O)C1O [Compound 8, 1-O-E-caffeoyl-β-D-glucopyranoside] | 84.8 ± 5 |
| 78 ± 2.3 | COc1c(O)cc2c(=O)oc3c(O)c(O)cc4c(=O)oc1c2c34 [Compound 10, 3-O-methylellagic acid] | > 100 |
